Consider 45 molecules from ChEMBL document CHEMBL3727374, “Compounds, pharmaceutical compositions, and methods of treating or preventing neurodegenerative diseases or disorders” (2012).

In one data set the target is Huntingtin (Homo sapiens, UniProt P42858). The data set is described as follows: Inhibition of GFP-fused Huntingtin protein Q103/Q25 mutant (unknown origin) […] assessed as protection against huntingtin protein aggregation incubated for 48 hrs by multiplexed assay based HTT f3(agr) method. Particulars: pc-12. The format is cell-based.
The target of data set [1] is T1, Phosphatidylinositol 5-phosphate 4-kinase type-2 gamma (Homo sapiens, UniProt Q8TBX8).
T1 sequence (Q8TBX8 whole entry): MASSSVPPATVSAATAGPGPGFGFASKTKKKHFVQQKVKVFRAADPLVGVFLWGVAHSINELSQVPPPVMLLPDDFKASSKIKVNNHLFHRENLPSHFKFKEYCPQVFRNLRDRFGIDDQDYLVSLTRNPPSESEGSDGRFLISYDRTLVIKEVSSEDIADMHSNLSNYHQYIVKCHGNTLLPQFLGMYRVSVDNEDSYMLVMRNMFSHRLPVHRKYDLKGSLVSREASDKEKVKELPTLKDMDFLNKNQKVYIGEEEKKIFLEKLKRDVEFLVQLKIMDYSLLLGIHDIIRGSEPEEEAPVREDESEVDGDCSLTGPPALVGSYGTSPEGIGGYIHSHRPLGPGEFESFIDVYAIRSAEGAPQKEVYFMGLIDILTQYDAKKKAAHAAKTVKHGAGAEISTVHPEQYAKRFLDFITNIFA
Nature of the data set: Inhibition of PIP5K2C (unknown origin).

The nature of data set [2]: Stability in mouse liver microsomes assessed as parent compound remaining at 5 uM incubated for 60 mins in absence of NADPH. As to conditions: read-out: Stability. In kind it is ADME. A general note: Liver microsomes are vesicles of endoplasmic reticulum, rich in cytochrome P450 enzymes.
Data set [3] is described as follows: Stability in mouse liver microsomes assessed as parent compound remaining at 5 uM incubated for 60 mins in presence of NADPH. The format is ADME. As to conditions: read-out: Stability.
The subject of data set [4] is STHdhQ111. Nature of the data set: Cytoprotective activity in mouse STHdhQ111 cells against serum free medium-induced apoptotic cell death assessed as inhibition of caspase-9 activation incubated for 16 hrs. In kind it is functional, cell-based.
The test system of data set [5] is STHdhQ111. Nature of the data set: Cytoprotective activity in mouse STHdhQ111 cells against serum free medium-induced apoptotic cell death assessed as inhibition of caspase-3 activation incubated for 16 hrs. In kind it is functional, cell-based.
For data set [6], the system named is STHdhQ111. Nature of the data set: Cytoprotective activity in mouse STHdhQ111 cells assessed as protection against H2O2-induced cell death at 10 nM to 1 uM by MTT assay. The format is functional, cell-based.
Data set [7] relates to STHdhQ111. Nature of the data set: Cytoprotective activity in mouse STHdhQ111 cells assessed as protection against beta-amyloid-induced cell death at 10 nM to 1 uM by MTT assay. The format is functional, cell-based. Background: Tetrazolium dyes change colour on reduction, which living cells bring about.
Data set [8] in a line: Stability in mouse liver microsomes assessed as parent compound remaining at 1 uM incubated for 60 mins in presence of NADPH. Particulars: read-out: Stability. The format is ADME.
Data set [9] in a line: Stability in mouse liver microsomes assessed as parent compound remaining at 1 uM incubated for 60 mins in absence of NADPH. In kind it is ADME. As to conditions: read-out: Stability.

Activity calls are given as the source filed them. No cut-off for these calls is given here. Where only a bound is given, the exact number is not on record here.

Huntingtin, sequence (P42858 whole entry, looked up, stated change not applied, the tested form may be a part): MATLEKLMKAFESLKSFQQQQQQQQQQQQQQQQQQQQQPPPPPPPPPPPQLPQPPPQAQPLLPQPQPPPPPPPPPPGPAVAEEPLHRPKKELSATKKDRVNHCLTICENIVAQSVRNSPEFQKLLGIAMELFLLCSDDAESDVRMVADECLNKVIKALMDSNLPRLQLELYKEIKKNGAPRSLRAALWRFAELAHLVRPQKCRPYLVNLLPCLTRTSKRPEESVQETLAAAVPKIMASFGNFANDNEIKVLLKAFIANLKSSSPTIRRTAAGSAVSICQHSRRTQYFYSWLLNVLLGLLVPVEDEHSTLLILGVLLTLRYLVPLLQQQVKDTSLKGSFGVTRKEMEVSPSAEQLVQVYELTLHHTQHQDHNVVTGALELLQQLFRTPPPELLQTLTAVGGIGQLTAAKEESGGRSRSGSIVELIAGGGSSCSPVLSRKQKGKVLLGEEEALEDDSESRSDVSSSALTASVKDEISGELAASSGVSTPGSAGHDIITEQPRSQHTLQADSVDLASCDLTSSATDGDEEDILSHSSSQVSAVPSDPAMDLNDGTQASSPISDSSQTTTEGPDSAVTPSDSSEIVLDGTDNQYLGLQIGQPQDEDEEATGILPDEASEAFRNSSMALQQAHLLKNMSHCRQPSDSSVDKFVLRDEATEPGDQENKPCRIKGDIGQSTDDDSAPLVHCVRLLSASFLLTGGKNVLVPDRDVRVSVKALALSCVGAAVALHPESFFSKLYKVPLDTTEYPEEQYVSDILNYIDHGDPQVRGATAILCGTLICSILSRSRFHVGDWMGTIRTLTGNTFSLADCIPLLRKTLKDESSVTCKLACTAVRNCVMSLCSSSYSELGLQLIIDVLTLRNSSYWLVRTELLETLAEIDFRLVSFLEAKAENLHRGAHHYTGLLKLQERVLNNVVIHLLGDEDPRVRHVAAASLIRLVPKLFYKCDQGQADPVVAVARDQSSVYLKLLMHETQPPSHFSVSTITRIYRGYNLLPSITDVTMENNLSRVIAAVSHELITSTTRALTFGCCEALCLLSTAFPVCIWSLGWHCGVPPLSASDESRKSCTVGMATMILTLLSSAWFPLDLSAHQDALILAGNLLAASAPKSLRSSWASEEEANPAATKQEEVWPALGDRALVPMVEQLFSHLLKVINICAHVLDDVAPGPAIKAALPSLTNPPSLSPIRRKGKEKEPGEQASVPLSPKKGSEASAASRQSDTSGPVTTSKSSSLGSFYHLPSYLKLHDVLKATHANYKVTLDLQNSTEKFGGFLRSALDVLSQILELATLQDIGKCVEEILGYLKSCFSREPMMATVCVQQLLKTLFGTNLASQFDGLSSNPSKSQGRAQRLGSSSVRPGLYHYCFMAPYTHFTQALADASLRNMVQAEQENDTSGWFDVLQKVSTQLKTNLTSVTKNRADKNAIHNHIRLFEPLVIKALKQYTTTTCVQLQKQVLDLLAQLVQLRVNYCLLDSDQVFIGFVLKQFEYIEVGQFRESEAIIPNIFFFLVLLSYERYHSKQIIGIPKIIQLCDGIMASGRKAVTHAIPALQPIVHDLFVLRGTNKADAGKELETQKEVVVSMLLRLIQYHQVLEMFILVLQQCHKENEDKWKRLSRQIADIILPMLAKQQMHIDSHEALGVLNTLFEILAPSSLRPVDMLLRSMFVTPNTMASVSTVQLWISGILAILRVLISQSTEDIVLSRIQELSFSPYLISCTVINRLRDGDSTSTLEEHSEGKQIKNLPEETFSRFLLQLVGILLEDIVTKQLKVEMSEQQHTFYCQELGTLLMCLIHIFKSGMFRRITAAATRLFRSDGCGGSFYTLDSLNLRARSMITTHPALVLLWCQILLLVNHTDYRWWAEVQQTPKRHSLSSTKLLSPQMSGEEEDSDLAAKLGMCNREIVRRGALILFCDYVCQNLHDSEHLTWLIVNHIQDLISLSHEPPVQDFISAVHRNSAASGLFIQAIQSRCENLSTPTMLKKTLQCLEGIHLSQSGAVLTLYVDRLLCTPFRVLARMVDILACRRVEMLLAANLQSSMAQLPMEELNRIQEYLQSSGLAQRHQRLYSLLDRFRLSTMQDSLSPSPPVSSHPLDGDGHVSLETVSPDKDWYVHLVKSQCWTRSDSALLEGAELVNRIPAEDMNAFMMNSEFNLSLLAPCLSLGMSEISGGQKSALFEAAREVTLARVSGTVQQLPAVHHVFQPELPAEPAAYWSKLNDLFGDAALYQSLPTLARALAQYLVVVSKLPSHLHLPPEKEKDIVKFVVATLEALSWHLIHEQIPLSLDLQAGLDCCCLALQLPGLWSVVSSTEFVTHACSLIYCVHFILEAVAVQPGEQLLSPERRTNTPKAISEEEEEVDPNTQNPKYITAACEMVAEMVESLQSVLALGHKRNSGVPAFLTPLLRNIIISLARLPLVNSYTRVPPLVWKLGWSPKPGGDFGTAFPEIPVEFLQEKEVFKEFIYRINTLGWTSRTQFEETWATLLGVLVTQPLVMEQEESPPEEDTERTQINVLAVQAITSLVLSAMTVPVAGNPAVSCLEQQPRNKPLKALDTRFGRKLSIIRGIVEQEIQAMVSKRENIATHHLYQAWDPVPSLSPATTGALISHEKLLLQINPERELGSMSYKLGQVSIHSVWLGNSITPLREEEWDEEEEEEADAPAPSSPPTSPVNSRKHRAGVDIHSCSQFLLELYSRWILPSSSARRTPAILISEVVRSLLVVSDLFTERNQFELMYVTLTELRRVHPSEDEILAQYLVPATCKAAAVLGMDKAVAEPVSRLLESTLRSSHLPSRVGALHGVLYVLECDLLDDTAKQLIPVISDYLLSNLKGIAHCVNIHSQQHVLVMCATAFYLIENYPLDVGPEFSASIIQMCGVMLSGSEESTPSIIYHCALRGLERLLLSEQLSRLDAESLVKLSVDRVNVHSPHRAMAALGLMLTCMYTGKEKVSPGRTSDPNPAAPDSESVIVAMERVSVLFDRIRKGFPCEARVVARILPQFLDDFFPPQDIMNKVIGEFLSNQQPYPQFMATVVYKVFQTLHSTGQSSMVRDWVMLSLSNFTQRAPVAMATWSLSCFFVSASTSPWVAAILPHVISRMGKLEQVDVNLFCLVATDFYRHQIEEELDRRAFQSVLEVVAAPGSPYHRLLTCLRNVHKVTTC

As a reminder, the AC50 is the concentration at which the activity in the assay is half-maximal. For orientation: Kd means a measure of binding affinity in units of concentration. As for `Cn1nnnc1Sc1ncnc2scc(I)c12`, at Huntingtin, the half-maximal activity concentration (AC50) is 35.5 µM. In data set [1], the affinity, expressed as Kd, was 0.89 µM.
`Cn1nnnc1Sc1ncnc2scc(-c3ccccc3Cl)c12`: the dissociation constant Kd in data set [1] was 14.1 µM.
In data set [1], `CC(=O)c1ccccc1-c1csc2ncnc(Sc3nnnn3C)c12` registered a dissociation constant Kd of 44.7 µM.
As to `Cn1nnnc1Sc1ncnc2scc(-c3cccc4ccccc34)c12`, the AC50 at Huntingtin was 35.5 µM. Further, in data set [1], the dissociation constant (Kd) was over 100 µM.
Taken in the same sequence, the figures for `Cn1nnnc1Sc1ncnc2scc(-c3ccc(Cl)cc3)c12` were 39.8 µM and 28.2 µM.
On the same counts, the results for `Cn1nnnc1Sc1ncnc2scc(-c3ccsc3)c12` are 35.5 µM and 7.94 µM.
For the molecule `Cn1nnnc1Sc1ncnc2scc(-c3cccc(S(C)(=O)=O)c3)c12`, the remaining at 1 h, 5 µM in data set [2] worked out at 89%; in data set [3], 70%. Besides, the AC50 at Huntingtin amounted to 39.8 µM. For the same molecule, the Kd in [1] was 0.63 µM.
On to `Cn1nnnc1Sc1ncnc2scc(-c3ccccc3F)c12`, for which the concentration at half-maximal activity (AC50) on Huntingtin was 35.5 µM. Also, binding in [1] was characterised by a dissociation constant (Kd) of 6.31 µM.
Taken in the same sequence, the figures for `COc1cccc(-c2csc3ncnc(Sc4nnnn4C)c23)c1` were 28.2 µM and 3.98 µM.
On the same counts, the results for `Cn1nnnc1Sc1ncnc2scc(-c3cccc4c3sc3ccccc34)c12` are 35.5 µM and over 100 µM.
On the same counts, the results for `Cn1nnnc1Sc1ncnc2scc(-c3cc4ccccc4o3)c12` are 7.94 µM and 2.82 µM.
On to `COc1ccccc1-c1csc2ncnc(Sc3nnnn3C)c12`, for which, on Huntingtin, the AC50 is 31.6 µM. In addition, in data set [1], binding was put at a Kd of 79.4 µM.
Taken in the same sequence, the figures for `Cn1nnnc1Sc1ncnc2scc(-c3ccccc3C(F)(F)F)c12` were 28.2 µM and 63.1 µM.
On the same counts, the results for `Cn1nnnc1Sc1ncnc2scc(-c3cccc(Cl)c3)c12` are 22.4 µM and 11.2 µM.
Molecule `Cn1nnnc1Sc1ncnc2scc(-c3ccc(N)cc3)c12` had a dissociation constant (Kd) in [1] of 5.62 µM.
As to `Cn1nnnc1Sc1ncnc2scc(-c3ccc(C(=O)OC(C)(C)C)cc3)c12`, the AC50 on Huntingtin came out at 35.5 µM. The same molecule returned a Kd in data set [1] of over 100 µM.
Taken in the same sequence, the figures for `Cn1nnnc1Sc1ncnc2scc(-c3cccc(F)c3)c12` were 14.1 µM and 6.31 µM.
`Cn1nnnc1Sc1ncnc2scc(-c3cccc(Br)c3)c12`: at Huntingtin, the AC50 turned out to be 35.5 µM. In data set [1], this molecule registered a Kd of 2.82 µM.
On the same counts, the results for `Cc1ccc(-c2csc3ncnc(Sc4nnnn4C)c23)cc1` are 39.8 µM and 14.1 µM.
Taken in the same sequence, the figures for `Cn1nnnc1Sc1ncnc2scc(-c3cccc(N)c3)c12` were 31.6 µM and 3.98 µM.
Turning to `Cn1nnnc1Sc1ncnc2scc(-c3ccc(S(C)(=O)=O)cc3)c12`, the AC50 on Huntingtin stood at 15.8 µM. In data set [1], this molecule returned a Kd of 7.94 µM.
As to `Cn1nnnc1Sc1ncnc2scc(-c3ccc4ccccc4c3)c12`, the concentration at half-maximal activity (AC50) at Huntingtin was found to be 15.8 µM. In addition, binding in data set [1] was put at a Kd of 63.1 µM.
On the same counts, the results for `Cn1nnnc1Sc1ncnc2scc(-c3ccc4c(c3)OCO4)c12` are 20 µM and 12.6 µM.
As to `Cn1nnnc1Sc1ncnc2scc(-c3ccc(C(F)(F)F)cc3)c12`, on Huntingtin, the AC50 was determined as 35.5 µM. The molecule further had a Kd in data set [1] of over 100 µM.
Molecule `Cn1nnnc1Sc1ncnc2scc(-c3ccccc3C#N)c12` yielded a dissociation constant Kd in data set [1] of 6.3 µM.
For the molecule `COc1ccc(-c2csc3ncnc(Sc4nnnn4C)c23)cc1`, the AC50 on Huntingtin was 39.8 µM. In [1], this molecule came in with a Kd of 11.2 µM.
On the same counts, the results for `Cn1nnnc1Sc1ncnc2scc(-c3ccc(-c4ccccc4)cc3)c12` are 28.2 µM and over 100 µM.
Take `Cn1nnnc1Sc1ncnc2scc(-c3ccc4c(=O)ccoc4c3)c12`: the AC50 on Huntingtin came to 35.5 µM. In addition, the Kd in [1] was determined as 1.99 µM.
For `Cn1nnnc1Sc1ncnc2scc(-c3ccc(C#N)cc3)c12`, on Huntingtin, the concentration at half-maximal activity (AC50) is 35.5 µM. The Kd in data set [1] was found to be 12.6 µM.
Consider `Cn1nnnc1Sc1ncnc2scc(-c3ccc(F)cc3)c12`, for which the concentration at half-maximal activity (AC50) at Huntingtin is 20 µM. In data set [1], this molecule gave an equilibrium dissociation constant (Kd) of 12.6 µM. In addition, the outcome with STHdhQ111 [4] and in the data set on STHdhQ111 [5] was Active.
For the molecule `Cn1nnnc1Sc1ncnc2scc(-c3ccccc3[N+](=O)[O-])c12`, the half-maximal activity concentration (AC50) on Huntingtin was found to be 15.8 µM. The molecule also displayed a dissociation constant (Kd) in data set [1] of 11.2 µM.
Taken in the same sequence, the figures for `Cn1nnnc1Sc1ncnc2scc(-c3ccc(Br)cc3)c12` were 35.5 µM and 39.8 µM.
On the same counts, the results for `Cn1nnnc1Sc1ncnc2scc(-c3ccc[nH]3)c12` are 31.6 µM and 5.62 µM.
On the same counts, the results for `Cc1cccc(-c2csc3ncnc(Sc4nnnn4C)c23)c1` are 35.5 µM and 11.2 µM.
`CS(=O)(=O)c1cccc(-c2csc3ncnc(NCCN)c23)c1` showed a dissociation constant Kd in data set [1] of over 100 µM.
Consider `CC(=O)c1cccc(-c2csc3ncnc(Sc4nnnn4C)c23)c1`, for which, at Huntingtin, the half-maximal activity concentration (AC50) is 28.2 µM. For the same molecule, the outcome in the data set on STHdhQ111 [6] and in the data set with STHdhQ111 [7] was Active.
Take `Cn1nnnc1Sc1ncnc2scc(-c3cccc(C(F)(F)F)c3)c12`: at Huntingtin, the AC50 is 35.5 µM. Binding in [1] was put at a Kd of 6.3 µM.
Taken in the same sequence, the figures for `Cn1nnnc1Sc1ncnc2scc(Br)c12` were 5.01 µM and 1.12 µM.
Turning to `Cn1nnnc1Sc1ncnc2scc(-c3cccc([N+](=O)[O-])c3)c12`, at Huntingtin, the AC50 stood at 35.5 µM. The same molecule gave a dissociation constant Kd in [1] of 1.58 µM.
For the molecule `CC(=O)c1ccc(-c2csc3ncnc(Sc4nnnn4C)c23)cc1`, the AC50 on Huntingtin stood at 39.8 µM. The remaining at 1 h, 1 µM in data set [8] is 2%; in [9], 91%.
`Cn1nnnc1Sc1ncnc2scc(-c3ccccc3)c12`: at Huntingtin, the half-maximal activity concentration (AC50) was 39.8 µM. The molecule also came in with a Kd in [1] of 3.55 µM.
With `Cn1nnnc1Sc1ncnc2scc(-c3ccc([N+](=O)[O-])cc3)c12`, the concentration at half-maximal activity (AC50) at Huntingtin was 35.5 µM. In data set [1], this molecule displayed a Kd of 6.31 µM.
Taken in the same sequence, the figures for `Cn1nnnc1Sc1ncnc2scc(-c3cccc(C#N)c3)c12` were 35.5 µM and 2.51 µM.
As for `Cn1nnnc1Sc1ncnc2scc(-c3cccs3)c12`, the half-maximal activity concentration (AC50) on Huntingtin was 35.5 µM. Also, the Kd in [1] stood at 2.82 µM. Besides, the remaining at 1 h, 1 µM in data set [8] turned out to be 0%; in data set [9], 88%.
As to `Cc1ccccc1-c1csc2ncnc(Sc3nnnn3C)c12`, the affinity in [1], expressed as Kd, was 44.7 µM. This lies in the double-digit micromolar range.
